According to US5789395A, “Method of using tetracycline compounds for inhibition of endogenous nitric oxide production” (The Research Foundation of State University of New York, priority 1996, dated 1998):

Columns and labels:
[1] = system: iNOS expression in macrophages; conditions: Nathan et al. 1994, Vodovotz et al. 1993; cited from earlier work
iNOS [2] = experiment: iNOS activity (L-arginine-to-L-citrulline) in cell-free extracts of cells treated with modulator before LPS; assay type: cell-based, murine; conditions: positive control
Experimental: Murine macrophage cells (RAW 264.7) were incubated with 20-80 μg/mL doxycycline or minocycline, 10 μM hydrocortisone (Sigma Chemical Co., St. Louis, Mo.), or 75 μM L-NMMA for 1-2 h, followed by addition of LPS at 100 ng/mL and incubation for 16-18 h. Cell-free extracts were prepared at the end of each time period. Specific activity of iNOS was determined in the cell-free extracts by monitoring the conversion of L-[^3 H]-arginine to L-[^3 H]-citrulline as described by Amin et al. (1995b) and Vyas et al. (1996).
Cell-free extracts were prepared as follows: Following induction by incubation with LPS, the cells were pelleted at 4° C. and resuspended in Tris buffer (10 mM, pH 7.4) containing 10 μg/mL each chymostatin, antipain, leupeptin and pepstatin, 1 mM DTT and 1 mM PMSF. Cells were lysed in a Polytron PT 1200 homogenizer (Kinematica AG, Switzerland) after 3 cycles of rapid freeze-thawing. The lysate was centrifuged at 16,000 rpm for 60 min at 4° C., and the supernatants were used as cell-free extracts.
The protein in the extracts was measured by BCA assay reagent using BSA as standard (Smith et al. 1985). The reaction mixture for iNOS assay consists of Tris 50 mM (pH 7.8); BSA 1 mg/mL; DTT 1 mM; CaCl2, 2 mM; FAD 10 μM; BH4 10,μM; L-arginine 30 μM; NADPH 1 mM. The reaction mixture was spiked with 1μL (250 nM) of L-[^3 H]-arginine (Dupont NEN, Boston, Mass.) (1 mCi/mL=37.0 MBq/mL). After 20 min the assays were terminated by heating the reaction mixture at 90° C. for 5 min. Ten microiters (≈100,000 cpm) of the supernatant was spotted on activated AVICEL TLC plates (Analtech, Newark, Del.). The TLC plates were developed in a solvent system consisting of ethanol:water:ammonia (80:16:4). Quantitation of the spot for L-[^3 H]-citrulline was performed by a Bioscan System 200 Imaging Scanner.

NOS = conditions: competitive inhibitor; cited from earlier work
collagenase = conditions: cited from earlier work
renal mesangial cells = experiment: NO production by IFN-γ/LPS-stimulated renal mesangial cells (Greiss reaction); assay type: cell-based, rat; conditions: for inhibition of NO production, time course: 24-72 hr; for Emax at 5 µg/mL: Rattus norvegicus, Mesangial cell, 5 μg/mL, 48 hr, P<0.01, read-out: inhibition of NO production, maximal effect
Source text: The use of IFN-γ to induce renal injury is a model of glomerulonephritis known in the art. Glomerulonephritis is characterized by increased production of NO.

133 kD iNOS = experiment: iNOS protein expression in LPS-activated RAW 264.7 cells (Western blot); assay type: cell-based, murine; conditions: 10 μM, positive control
Experimental: RAW 264.7 cells were activated with 100 ng/mL LPS for 16-18 h, with and without doxycycline or minocycline (20-80 μg/mL) or with hydrocortisone (10 μM). Cell-free extracts were prepared as described above. The extract s were analyzed for 133 kD iNOS by Western blotting, using specific anti-iNOS antibodies.
Equal amounts of protein (25-50 μg) estimated by BCA reagent (Pierce, Rockford, Ill.) were loaded onto SDS-PAGE gels and stained to verify the concentrations of various protein fractions by examining the intensities of the protein bands on the gels. Western blot analysis was carried out from the same cell extracts. The Western-blotted membrane was probed with a specific anti-murine iNOS monoclonal antibody (Transduction Laboratories, Lexington, Ky.), as specified by the supplier. The same blot was also probed with an anti-actin antibody generously provided by Dr. James L. Lessard (Children's Hospital Medical Center, Cincinnati, Ohio). The blots were developed using the ECL Western blot system (Amersham, Arlington Heights, Ill.). Quantitation of the bands was performed using a densitometer from Molecular Dynamics (Sunnyvale, Calif.). FIG. 5 is representative.

iNOS mRNA [3] = experiment: iNOS mRNA expression in LPS-stimulated RAW 264.7 cells (RT-PCR); assay type: cell-based, murine; conditions: Mus musculus, RAW264.7, read-out: decrease of iNOS mRNA
Experimental: Doxycycline and minocycline may suppress iNOS before the synthesis of the enzyme, leading to inhibition of iNOS protein expression, specific activity and accumulation of nitrite. […] Therefore, to determine the level at which tetracycline inhibited iNOS protein expression, RAW 264.7 cells treated with LPS in the presence or absence of doxycycline and minocycline were analyzed for iNOS mRNA by semi-quantitative RT-PCR.
The presence of iNOS and β-actin mRNA in cells was analyzed by reverse transcription (RT) of total RNA followed by PCR amplification of the cDNA. The sense and antisense oligonucleotides for iNOS were, respectively, 5'-ACGGAGAAGCTTAGATCTGGAGCAGAAGTG-3'(142 to 171) (SEQ ID NO:1) and 5'-CTGCAGGTTGGACCACTGGATCCTGCCGAT-3' (767 to 796) (SEQ ID NO:2). The sense and antisense primers for β-actin were 5'-TCCTTCGTTGCCGGTCCACA-3' (44 to 63) (SEQ ID NO:3) and 5'-CGTCTCCGGAGTCCATCACA-3' (534 to 552) (SEQ ID NO:4), respectively. The predicted PCR product of the iNOS cDNA was 654 bp; that of the β-actin cDNA was 508 bp. The polymerase chain reaction was carried out in an automated DNA thermal cycle (Perkin-Elmer Cetus, Norwalk, Conn.). The total RNA was extracted using TRI-Reagent (MRC Inc., Cincinnati, Ohio). The cDNA was prepared from equal amounts (1-5 μg) of total RNA using a SuperScript™ RNase H Reverse Transcriptase (Gibco BRL, Gaithersburg, Md.). An equal amount of the cDNA was used to amplify the mRNA by PCR. PCR amplification was performed in 50 μL solution containing 1.5 mM MgCl2, 500 ng iNOS primer, 100 ng β-actin primer, 0.2 mM of each dNTP, 2.5 units of Taq DNA polymerase (Gibco). The cycle conditions for amplification of cDNA were 1 min at 94° C., 1-2 min at 55° C. and 3 min at 72° C. for 30 cycles for both iNOS and β-actin. The PCR product was analyzed by electrophoresis on 1.0% agarose gels.
RT-PCR analysis of iNOS and βactin mRNA expression in RAW 264.7 cells was carried out after stimulation with LPS±doxycycline or minocycline. […] Equal amounts of RNA were analyzed for iNOS and β-actin expression as described above.

iNOS mRNA [4] = experiment: iNOS mRNA expression in LPS-stimulated RAW cells (Northern blot); assay type: cell-based, murine; conditions: Mus musculus
Experimental: Northern blot analysis of the iNOS MRNA expressed by the cells was then carried out to evaluate precisely the effect of iNOS expression in the presence of doxycycline and minocycline. The probes again were the iNOS and β-actin CDNA probes described above.
In this case, total RNA was isolated using TRI Reagent (MRC Inc., Cincinnati, Ohio). […] Briefly, 30 μg of RNA was subjected to electrophoresis in 1% agarose formaldehyde gel. The gel was then transferred via capillary action onto a nylon membrane (Zeta Probe, Bio-Rad Laboratories, Melville, N.Y.). The membrane was hybridized with [^32 P]-dCTP-labeled iNOS CDNA (4 kb SmaI fragment), a kind gift from Dr. James Cunningham (Harvard Medical School, Boston, Mass.). After hybridization, the blot was exposed to Kodak X-ray film (Kodak, Rochester, N.Y.) for 24-48 h with intensifying screens at -70° C. The β-actin probe was purchased from ClonTech (Palo Alto, Calif.) and probed as described above. Quantitation of the intensity of the iNOS/β-actin bands was performed using a phosphoimager (Molecular Dynamics, Sunnyvale, Calif.).

[5] = system: iNOS expression in mesangial cells; conditions: Pfeilschifter et al. (1995); cited from earlier work
iNOS [6] = conditions: in vitro; Amin et al. 1995b; cited from earlier work

TGF-β1: suppresses iNOS expression in macrophages
suppression of iNOS expression [1]: suppress iNOS expression by decreasing mRNA expression

CN=C(N)NCCC[C@H](N)C(=O)O [L-NMMA]
inhibition of iNOS activity (iNOS [2]; 75 μM): 64%
inhibition of NOS activity (NOS): > 95%

NC(=O)C1=C(O)C2(O)C(=O)C3=C(O)c4c(O)cccc4CC3CC2CC1=O (centres unmarked) [CMT-3, 6-demethyl-6-deoxy-4-dedimethylaminotetracycline]
anti-collagenase activity (collagenase): high level of anti-collagenase activity
inhibition of NO production, time course (renal mesangial cells): time-dependent inhibition of NO production
Emax at 5 µg/mL (renal mesangial cells): > 80%

C[C@H]1c2cccc(O)c2C(O)=C2C(=O)[C@]3(O)C(O)=C(C(N)=O)C(=O)C[C@@H]3[C@@H](O)[C@@H]21 [CMT-8, 6-α-deoxy-5-hydroxy-4-dedimethylaminotetracycline]
anti-collagenase activity (collagenase): high level of anti-collagenase activity
inhibition of NO production, time course (renal mesangial cells): time-dependent inhibition of NO production
Emax at 5 µg/mL (renal mesangial cells): > 80%

C[C@]12CCC(=O)C=C1CC[C@@H]1[C@@H]2[C@@H](O)C[C@@]2(C)[C@H]1CC[C@]2(O)C(=O)CO [hydrocortisone]
inhibition of iNOS activity (iNOS [2]; 10 μM): 60%
inhibition of iNOS protein expression (133 kD iNOS): 43%
suppression of iNOS expression [1]: suppress iNOS expression by decreasing mRNA expression
inhibition at 10 µM (iNOS mRNA [3]): 50 to 100%
inhibition at 10 µM (iNOS mRNA [4]; read-out: inhibition of iNOS mRNA expression, 10 μM, doxycycline experiment (FIG. 6C)): 73%
inhibition at 10 µM (iNOS mRNA [4]; read-out: inhibition of iNOS mRNA expression, 10 μM, minocycline experiment (FIG. 6D)): 76%

C[C@@H]1C[C@H]2[C@@H]3CCC4=CC(=O)C=C[C@]4(C)[C@@]3(F)[C@@H](O)C[C@]2(C)[C@@]1(O)C(=O)CO [dexamethasone]
suppression of IL-1β-induced iNOS expression [5]: acts at multiple levels (including transcription of iNOS) to suppress IL-1β-induced iNOS expression

CC(=O)Oc1ccccc1C(=O)O [aspirin]
inhibition of iNOS catalytic activity (iNOS [6]): inhibit iNOS catalytic activity in vitro

CC(=O)n1ccnc1 [N-acetyl imidazole, N-acetylimidazole]
inhibition of iNOS catalytic activity (iNOS [6]): inhibit iNOS catalytic activity in vitro

CC1(O)c2cccc(O)c2C(=O)C2=C(O)C3(O)C(=O)C(C(N)=O)=C(O)CC3CC21 (centres unmarked) [CMT-1, 4-dedimethylaminotetracycline]
anti-collagenase activity (collagenase): modest anti-collagenase activity
NO production (% of control) (renal mesangial cells; 10 μg/mL, after 48 hr): ~ 60 % of control
